The text below walks through data of US20220236187A1, “SYSTEM AND METHOD FOR REAL-TIME MULTICOLOR SHORTWAVE INFRARED FLUORESCENCE IMAGING” (HELMHOLTZ ZENTRUM MÜNCHEN - DEUTSCHES FORSCHUNGSZENTRUM FÜR …, priority 2019, published 2022).

Series [1] is described as follows: Two-color SWIR lymphatic imaging of a narcotized mouse (Example 2, Demonstration III). The format is in vivo. The following applies: injected intradermally into footpads and base of tail; after 30 min, 40 min. From the text: The FIGS. 9A, 9B and 9C show merged frames representing the lymphatic system of a narcotized mouse in two-color real-time acquisition. With detector exposure time of 20 ms, a frame rate of 21 fps is achieved with the developed system. […] Then, Julo 7 micelles have been injected intravenously. The lymphatic functional imaging is later enhanced by the assignment of two distinct colors.
Light Source (785 nm laser & 1064 nm laser sequentially triggered, pulse length=21 ms)→Collimator→Mirror→1100 nm Short-pass Filter→Engineered Diffuser→Sample. The arrows represent the light path. Accordingly, the light path has been set up as follows: from Light Source (785 nm laser & 1064 nm laser sequentially triggered, pulse length=21 ms) to Collimator to Mirror to 1100 nm Short-pass Filter to Engineered Diffuser to Sample.
Sample→3xf=500 mm C-Coated lenses→Silver Mirror→1000 nm Long-pass Filter→2xf=200 mm C-coated lenses→InGaAs Detector. The arrows represent the light path. Accordingly, the light path has been set up as follows: from Sample to 3xf=500 mm C-Coated lenses to Silver Mirror to 1000 nm Long-pass Filter to 2xf=200 mm C-coated lenses to InGaAs Detector.
Sample: ICG (aqueous, 13 nmol intradermally [footpads and base of tail]) and Julo7 (micelles, 70 nmol intravenously).

Series [2] can be described thus: Brightness comparison of micelle-formulated dyes and ICG in water, fetal bovine serum and sheep blood. The series is classed as physicochemical. The following applies: dyes in micelles, ICG free. From the text:
(§1) FIG. 21: Brightness comparisons in imaging configuration. a-c) Images upon 785 (33 mWcm^−2), 892 (54 mWcm^−2), and 968 (77 mWcm^−2) nm ex. and LP1000 nm detection (variable exposure time (ET) and frame rate) of capillaries containing equal moles of dyes 4-6, 9, 10 (lipid formulations) and benchmark dyes ICG (free) and MeOFlav7 (abbreviated MF7) (lipid formulation) when dissolved in water (a), fetal bovine serum (FBS) (b), or sheep blood (c). […] (e) and after injection of JuloChrom5 (10) (50 nmol) upon 982 nm (104 mWcm^−2) ex. (f). Collect: LP1000 nm, 2.0 ms ET, 150 fps (for 2-channel collection, see SI for images from all channels).
Next, to more closely approximate in vivo performance, each chromenylium or flavylium dye were formulated into water-soluble PEG-phospholipid micelles, a biocompatible nanomaterial for delivery. Brightness of solutions with equal dye concentration (flavylium and chromenylium dyes in micelles; ICG) were evaluated when dispersed in water (e.g., FIG. 20a), fetal bovine serum (FBS) (e.g., FIG. 20b), and sheep blood (e.g., FIG. 20c).
Results changed drastically compared to those in the organic solvent experiment, likely due to variable amounts of aggregation or interactions within the micelles and/or biological media. […]

For series [3] the following is noted: stated as established property; cited from earlier work.
Series [4] is described as follows: In vivo brightness comparison of JuloChrom5 (10) and ICG in a single mouse. More on the design: species or system mice. The following applies: compared to the PEG-coated micelles.
Excerpt: as §1
To most closely assess the brightness performance for SWIR imaging, an in vivo comparative experiment between the highest performing chromenylium dye, JuloChrom5 (10) and ICG was designed. To note, while many SWIR imaging agents have been compared to the benchmark dye, ICG, these comparisons are often difficult due to the diverse photophysical and biological properties of different emitters. In this case, the in vivo comparison is complicated by differing biodistribution properties of the two dyes. […] Normalizing each acquisition to the injection start time, the signal over time over the whole mouse (yellow), a section of the vasculature (red), and the liver (black) were quantified. […]

Series [5] in a line: Brightness comparison in organic solvent in the excitation-multiplexed SWIR imaging configuration. The following applies: 0.25 μM, 785/892/968 nm excitation, 1000 nm LP. The series is classed as physicochemical. From the text: While photophysical characterization can be essential for understanding chromophore properties, when moving to an in vivo system, there are many additional parameters that might contribute to a dye's performance, including delivery strategy, interaction with biological tissues, and the excitation and detection parameters of the imaging configuration. To begin to understand the translation to in vivo experiments, an excitation-multiplexed SWIR imaging configuration was used to compare emission of the fluorophores when excited at relevant wavelengths. The imaging set-up includes excitation lasers that correspond to each channel (e.g., i-iv, FIG. 17a) (785, 892, and 968, 1065 nm) with irradiation scaled to the approved values, as outlined by the International Commission on Non-Ionizing Radiation Protection (ICNIRP) guidelines. The guidelines indicate that within the spectral region of interest (˜785 nm-1065 nm) higher photon doses are tolerated as the wavelength is increased. […] The excitation lasers are diffused and delivered uniformly to the biological sample. […]
To compare brightness of the chromenylium dyes in vitro, dyes 5, 6, 9 and 10 were dissolved in organic solvent (DCM) at 0.25 μM, and measured the emission, with 1000 nm longpass (LP) filtering on an InGaAs camera upon sequential excitation with 785, 892, and 968 nm lasers. […]

Series [6] is described as follows: Excitation-multiplexed SWIR imaging in mice, probe distribution (Example 9). The series is classed as in vivo. The following applies: 80 minutes after i.p. 10 micelles and i.v. 3 micelles and ICG; top view. From the text: To perform excitation multiplexing in the SWIR, a custom SWIR imaging configuration with three lasers and an InGaAs detector was built (FIG. 13B). With laser lines at 785 nm, 980 nm, and 1064 nm, tailored excitation could uniquely excite three fluorophores. Emission is detected in a color-blind fashion using identical filters and settings in the SWIR, providing high-resolution images. To enable this process to occur in real-time, we constructed an electronic triggering system which is coupled to both the camera and laser excitation sources. […]
Physiological properties such as heart-rate, respiratory rate, thermoregulation, metabolism, and the function of the central nervous system, are highly impacted by anesthesia. […] Due to frame rates which are faster than macroscopic movements in animals, the heart rate and respiratory rate in awake animals can be quantified. […] The method allows physiology to be monitored with minimal perturbation of the animal's usual environment. […] The real-time collection can be visualized by observing close time-points in which a continuous movement is monitored without visual aberrations (FIG. 16A). In addition to assessing natural physiology, these tools foreshadow more complex experiments in which the location of multiple probes could be monitored over long periods of time, non-invasively and without the need for anesthesia. […]

For series [7] the following is noted: value used as reference for relative measurements; cited from earlier work.
For series [8] the following is noted: value used as reference for relative measurements; cited from earlier work. This is another data set of the same source.

Structures are written as SMILES. Read-outs that look alike come from different tables or passages of the source.

For `CC1(C)C(/C=C/C=C/C=C/C=C2\N(CCCCS(=O)(=O)O)c3ccc4ccccc4c3C2(C)C)=[N+](CCCCS(=O)(=O)[O-])c2ccc3ccccc3c21` [ICG, indocyanine green], the “conduction through the lymphatic vessels” value in series [1] is reported as “efficiently conducted through the lymphatic vessels”. Also, the “change of brightness in FBS and blood compared to water” value in series [2] is given as “increase in brightness”. In addition, the “SWIR brightness in water, FBS and blood” value in series [2] (equal dye concentration) was “brightest SWIR emitter upon 785 nm excitation in both FBS and blood”. In series [3], the “clearance of ICG” value was “clears efficiently and exclusively from the liver”. Also, the hepatic clearance time result in series [4] was “faster hepatic clearance time”. In series [5], the “ranking of SWIR emission per excitation channel” value is “best performers in channels i and ii”. In addition, the “location of probe in awake mouse” value in series [6] is given as “exclusively in the liver”.
For `ClC1=C(/C=C/c2cc(-c3ccccc3)[s+]c3ccccc23)CCC/C1=C\C=C1/C=C(c2ccccc2)Sc2ccccc21.[O-][Cl+3]([O-])([O-])[O-]` [IR-26], the “ΦF of reference standard IR-26” value in series [7] and in series [8] was 0.05% throughout.
